We go through one compound from ChEMBL document CHEMBL5356958, “Discovery of a Highly Potent and Selective MYOF Inhibitor with Improved Water Solubility for the Treatment of Gastric Cancer” (J Med Chem, 2023).

Values after ≈ are worked out from the molar mass of the structure shown.

In data set [1] the test system is MKN-45. As to the kind of experiment: Induction of apoptosis in human MKN-45 cells assessed as early apoptotic cells at 400 nM incubated for 48 hrs by Annexin V-FITC/PI staining based flow cytometry analysis (reference value: 0.5%). In kind it is functional. Background: A flow cytometer gives signals particle by particle.
The nature of data set [2]: Antiproliferative activity against HAF cells incubated for 48 hrs by SRB assay. In kind it is functional, cell-based. The following applies: Homo sapiens. A general note: The SRB assay estimates cell density from bound dye.
In data set [3] the test system is MKN-45. The data set can be described thus: Induction of apoptosis in human MKN-45 cells assessed as late apoptotic cells at 400 nM incubated for 48 hrs by Annexin V-FITC/PI staining based flow cytometry analysis (reference value: 2.6%). In kind it is functional.
Data set [4] can be described thus: Toxicity in BALB/c mouse assessed as change in kidney morphology at 15 to 30 mg/kg, ip measured every 3 days for 21 days by HE staining based assay. The class given is organism-based. As to conditions: in vivo, 504 h, dose 15-30 mg/kg, time 21 day.
In data set [5] the test system is MGC-803. As to the kind of experiment: Antiproliferative activity against human MGC-803 cells incubated for 48 hrs by SRB assay. In kind it is functional, cell-based. The following applies: MGC-803, 48 h.
The nature of data set [6]: Aqueous solubility of compound in PBS at pH 2. In kind it is physicochemical.
Data set [7] can be described thus: AUC(0 to t) in ICR mouse at 1 mg/kg, iv. The class given is ADME, organism-based. Details: dose 1 mg/kg, route iv. As to conditions: in vivo.
Data set [8] has as its system MKN-45. The data set can be described thus: Induction of apoptosis in human MKN-45 cells assessed as late apoptotic cells at 100 nM incubated for 48 hrs by Annexin V-FITC/PI staining based flow cytometry analysis (reference value: 2.6%). The class given is functional.
Data set [9] can be described thus: Mean residence time in ICR mouse at 1 mg/kg, iv. The class given is ADME, organism-based. The following applies: in vivo.
The target of another data set is Myoferlin (Homo sapiens, UniProt Q9NZM1). As to the kind of experiment: Binding affinity to MYOF C2D (unknown origin) expressed in Escherichia coli BL21(DE3) by SPR analysis.
Myoferlin, sequence (Q9NZM1 whole entry): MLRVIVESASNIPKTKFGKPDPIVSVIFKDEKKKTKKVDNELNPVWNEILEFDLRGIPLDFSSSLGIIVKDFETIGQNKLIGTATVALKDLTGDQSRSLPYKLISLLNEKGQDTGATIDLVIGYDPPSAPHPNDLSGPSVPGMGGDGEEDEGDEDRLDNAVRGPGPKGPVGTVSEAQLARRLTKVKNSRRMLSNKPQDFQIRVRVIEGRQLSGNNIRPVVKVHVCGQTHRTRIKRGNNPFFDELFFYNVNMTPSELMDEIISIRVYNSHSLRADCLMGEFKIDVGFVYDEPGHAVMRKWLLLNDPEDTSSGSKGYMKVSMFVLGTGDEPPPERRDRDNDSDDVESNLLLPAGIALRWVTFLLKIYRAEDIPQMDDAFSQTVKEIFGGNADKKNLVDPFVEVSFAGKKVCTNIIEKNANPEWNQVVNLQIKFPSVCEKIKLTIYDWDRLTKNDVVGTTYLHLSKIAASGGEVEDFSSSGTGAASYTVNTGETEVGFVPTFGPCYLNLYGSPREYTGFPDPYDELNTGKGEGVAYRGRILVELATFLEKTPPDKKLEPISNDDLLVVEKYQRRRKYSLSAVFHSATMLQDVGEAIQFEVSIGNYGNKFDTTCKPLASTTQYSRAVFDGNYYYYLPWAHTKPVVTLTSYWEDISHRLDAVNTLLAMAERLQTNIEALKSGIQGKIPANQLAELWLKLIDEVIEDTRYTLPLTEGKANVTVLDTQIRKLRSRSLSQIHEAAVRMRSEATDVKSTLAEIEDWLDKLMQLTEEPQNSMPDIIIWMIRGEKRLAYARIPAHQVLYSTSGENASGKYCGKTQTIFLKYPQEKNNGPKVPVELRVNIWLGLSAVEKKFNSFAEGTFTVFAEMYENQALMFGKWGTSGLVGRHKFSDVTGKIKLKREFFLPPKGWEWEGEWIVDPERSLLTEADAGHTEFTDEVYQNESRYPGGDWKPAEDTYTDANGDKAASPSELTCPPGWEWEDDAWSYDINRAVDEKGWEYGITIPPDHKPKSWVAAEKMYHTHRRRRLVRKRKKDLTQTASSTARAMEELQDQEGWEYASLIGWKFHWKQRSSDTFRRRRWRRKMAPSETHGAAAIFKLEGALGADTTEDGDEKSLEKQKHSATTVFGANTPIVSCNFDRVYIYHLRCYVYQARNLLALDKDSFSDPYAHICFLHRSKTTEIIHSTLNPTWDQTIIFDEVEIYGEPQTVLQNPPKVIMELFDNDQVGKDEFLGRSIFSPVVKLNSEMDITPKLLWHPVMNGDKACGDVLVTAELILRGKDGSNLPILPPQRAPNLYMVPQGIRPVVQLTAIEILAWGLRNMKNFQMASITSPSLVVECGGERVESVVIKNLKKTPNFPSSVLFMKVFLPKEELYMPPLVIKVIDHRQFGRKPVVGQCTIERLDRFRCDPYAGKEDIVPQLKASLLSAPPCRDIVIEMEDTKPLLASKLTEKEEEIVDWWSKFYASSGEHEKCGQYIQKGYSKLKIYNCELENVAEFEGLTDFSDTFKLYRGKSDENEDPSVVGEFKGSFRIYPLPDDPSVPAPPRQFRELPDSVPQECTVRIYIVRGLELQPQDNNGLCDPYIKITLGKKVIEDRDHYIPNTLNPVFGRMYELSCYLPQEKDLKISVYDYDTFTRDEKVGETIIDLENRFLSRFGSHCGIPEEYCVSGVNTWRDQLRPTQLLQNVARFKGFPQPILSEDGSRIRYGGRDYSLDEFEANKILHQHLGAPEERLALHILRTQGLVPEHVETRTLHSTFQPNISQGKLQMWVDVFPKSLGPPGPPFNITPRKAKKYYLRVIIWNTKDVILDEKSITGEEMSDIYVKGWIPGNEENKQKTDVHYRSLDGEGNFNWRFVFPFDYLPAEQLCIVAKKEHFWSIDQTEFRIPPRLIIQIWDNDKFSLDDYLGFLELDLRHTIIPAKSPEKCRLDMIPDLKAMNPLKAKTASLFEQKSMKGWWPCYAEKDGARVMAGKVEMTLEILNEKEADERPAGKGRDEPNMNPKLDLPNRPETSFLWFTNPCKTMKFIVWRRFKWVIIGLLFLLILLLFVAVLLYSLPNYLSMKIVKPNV
Data set [10] has as its system MGC-803. The data set can be described thus: Antiinvasive activity against human MGC-803 cells incubated for 24 hrs by crystal violet staining based inverted microscopic analysis. In kind it is functional, cell-based.
Data set [11] relates to MKN-45. The data set can be described thus: Induction of apoptosis in human MKN-45 cells assessed as late apoptotic cells at 800 nM incubated for 48 hrs by Annexin V-FITC/PI staining based flow cytometry analysis (reference value: 2.6%). In kind it is functional.
For data set [12], the system named is MKN-45. The data set can be described thus: Induction of apoptosis in human MKN-45 cells assessed as early apoptotic cells at 200 nM incubated for 48 hrs by Annexin V-FITC/PI staining based flow cytometry analysis (reference value: 0.5%). In kind it is functional.

Turning to `CCc1nc(-c2ccc(OC)cc2)n(-c2cccc(C(=O)NCCCCn3nccn3)c2)n1`, the Activity was 12.6% in the data set on MKN-45 [1]; 37.6% with MKN-45 [3]; “Non-Toxic” in data set [4]; 2.8% with MKN-45 [8]; “Dose-Dependent Effect” in the data set with MGC-803 [10]; 40.6% in the data set with MKN-45 [11]. In addition, the Activity in the data set on MKN-45 [12] turned out to be 1%. Further, the IC50 (usually the concentration at which inhibition is half-maximal) in data set [2] was greater than 10 µM; with MGC-803 [5] it was 0.16 µM; in the data set on MGC-803 [10] (MGC-803, 24 h), 0.06 µM. Moreover, in data set [6], the solubility – broadly, the concentration that dissolves in the medium under given conditions – was 1310 µM (≈ 582 µg/mL). Moreover, the AUC(0-t) (in general, the area under the concentration-time curve up to a stated or last time point) in data set [7] is 751 ng·h/mL. In data set [9], the MRT (usually a mean duration of stay, worked out from the concentration-time curve) was 17.2 min. The affinity at Myoferlin, expressed as Kd, was 0.17 µM.
